# Experimental data: patent publication US20180203025A1, “HDL THERAPY MARKERS” (Cerenis Therapeutics Holding SA, priority 2014, published 2018)
# Assays:
# J774 macrophages = assay: Radioactive cholesterol efflux from J774 macrophages; type: cell-based, mouse; conditions: Study N; 0.03 to 10 mM; 6 hours
# Description: J774 macrophages obtained from ATCC (No TIB-67) were grown in Dulbecco's modified Eagle's medium (DMEM, Invitrogen) supplemented with 10% FBS (foetal bovine serum, Invitrogen), 100 units/ml penicillin G (Invitrogen), and 100 units/ml streptomycin (Invitrogen) at 37° C. with 5% CO2. Cells were seeded on 24-well plates (Falcon) at 40,000 cells/well and grown for 32 hours in 2 ml DMEM 10% FBS. LDL oxidation: 1 ml LDL is dialyzed against 4 L PBS (twice, 12 hours each) in Slide-A-Lyzer™ Mini Dialysis Units 7000MWCO (Pierce).
# [1] After dialysis, proteins-LDL are quantified with Coomassie protein assay (#1856209, ThermoScientific) using albumin (#23209, ThermoScientific) as standards. Absorbance is read with Glomax multi detection System (Promega) at 600 nm. […] After dialysis, proteins-LDL are quantified by same method as. […]
# The efflux is induced by adding different acceptors for 6 hours (or different time between 1 to 24 hours) in 250 μl DMEM without FBS. Radioactivity was measured by adding the medium (0.25 ml) to Super Mix (0.75 ml) (1200-439 Perkin-Elmer), mixed in 24 well flexible microplate (1450-402 Perkin-Elmer) and radioactivity was measured with MicroBeta® Trilux (2 minutes counting time). The intracellular [^3H] cholesterol was extracted by 0.2 ml hexane-isopropanol (3:2) (incubation 0.5 hours) and measured by liquid scintillation counting. […]
# [1] = system: SR-BI mRNA in HepG2 (human hepatocytes); assay: SR-BI mRNA in HepG2 hepatocytes; type: cell-based; conditions: Study K, 0.25, 25 and 250 μg/mL, 6 hours
# Description: HepG2 (human hepatocytes) and Hepa1-6 (mouse hepatocytes) were seeded on 6 well plates (300,000 cells/well) in DMEM 10% FCS. […] Gene expression was assayed using the protocols described in Sections 8.3.2 (RNA extraction); 8.3.4 (reverse transcription), and 8.3.5 (qPCR). ABCA1 (Taqman probe Hs01059118.m1 and Mm00442646.m1 for respectively HepG2 and Hepa1-6) and SR-BI (Taqman probe Hs00969821.m1 and Mm00450234.m1 for respectively HepG2 and Hepa1-6) expression was determined according to the manufacturer's protocol. The reference gene used is HPRT1 (Taqman probe: Mm00446968.m1) for Hepa1-6 and GAPDH (Taqman probe: Hs03929097.g1) for HepG2 cells.
# SR-BI in mouse liver = assay: SR-BI protein content in mouse liver; type: in vivo; conditions: 24 hours after the last injection; increasing concentrations
# Description: This study examined the SR-BI and ABCA1 protein content in the liver 24 hours after the last injection of CER-001. A piece of liver (50 mg) was lysed in PBS (500 μL) by brief sonication. The sample was centrifuged (800×g for 10 minutes) and the pellet was discarded. The supernatant was centrifuged for 30 minutes at 16,000×g at 4° C. and the pellet was solubilized with PBS 1% Triton X100 (200 μL). 10 μg of solubilized pellet was loaded on SDS PAGE 10% and ABCA1 expression (ab7360—dilution 1/1000) or SR-BI expression (ab24603—dilution 1/1000) was quantified using imageJ® software.
# [2] = Plasma cholesterol mobilization in apoE−/− mice; type: in vivo, mouse
# Description: The formulation was injected in the retro-orbital vein (50 μL/mouse) of mice anaesthetized with isoflurane, once every 2 days for 8 injections. The dose administered was based on the mean of mice bodyweight in each cage. The compounds were injected at 10 AM every day. For blood sampling, mice fasted overnight were sampled once at the indicated dose: (1) at predose (at 9 AM) by retro-orbital withdrawal: 24 hours before the first injection/day of surgery; (2) at postdose (at 9 AM) by retro-orbital withdrawal: 24 hours after the last injection; and (3) at t=0 (9 AM) and the indicated time points after the 5th injection by caudal withdrawal. Immediately after collection, blood samples were kept at ca. +4° C. to avoid alteration of the blood sample. Blood specimens were centrifuged (800×g for 10 minutes at +4° C.) and plasma was saved for future analysis.
# (§1) Add in each tube cholesterol standards (2 g/L): 0/0.625/1.25/1.875/2.5/3.75/5 μl. Centrifuge plasma samples at 12,000×g for 1 minute. Add 0.5 ml of the reconstituted buffer to each tube (standard and samples), vortex and incubate 5 minutes at 37° C. Transfer 150 μl from each tube to 2 different wells in a 96 well plate. Read absorbance at 500 nm.
# as §1, with “of” for “of the”
# This study examined the consequences of CER-001 administration on the lipoprotein profile in apoE^−/− mice fed with high fat diet. Blood was collected and analyzed at different time points after the 5th infusion. Plasma pre-dose (before the first injection) and plasma post-dose (24h after the last injection) were also compared. Plasma was analyzed for total and unesterified cholesterol and human ApoA-I contents.
# Total and unesterified cholesterol concentrations were determined according to the procotols of Sections 9.2.5 and 9.2.6, respectively. Cholesterol ester concentrations are determined after subtracted unesterified cholesterol from total cholesterol. The mobilization of cholesterol was determined on 12 mice per group after the 5th administration (1 hour before injection; 1 h, 2h, 4h and 24h after injection). The animals were fasted overnight.
Compound,cholesterol efflux (J774 macrophages),SR-BI mRNA level [1],liver SR-BI protein level (SR-BI in mouse liver),"plasma unesterified cholesterol concentration ([2]; 50 mg/kg, 2 and 4 hours after infusion)",post-dose total and unesterified cholesterol concentrations compared to HDL3 treated mice ([2]; 24h after the last injection),doses increasing the cholesterol concentration in plasma compared to placebo ([2]; after 8 injections),mobilization of unesterified cholesterol ([2]; after the 5th infusion),total plasma cholesterol mobilization ([2]; after the 5th infusion)
"OC[C@H]1O[C@@H]2O[C@H]3[C@H](O)[C@@H](O)[C@@H](O[C@H]4[C@H](O)[C@@H](O)[C@@H](O[C@H]5[C@H](O)[C@@H](O)[C@@H](O[C@H]6[C@H](O)[C@@H](O)[C@@H](O[C@H]7[C@H](O)[C@@H](O)[C@@H](O[C@H]8[C@H](O)[C@@H](O)[C@@H](O[C@H]1[C@H](O)[C@H]2O)O[C@@H]8CO)O[C@@H]7CO)O[C@@H]6CO)O[C@@H]5CO)O[C@@H]4CO)O[C@@H]3CO [β-cyclodextrin, reference compound]",dose-dependent increase,,,,,,,
"CER-001: engineered recombinant human apolipoprotein A-I HDL with sphingomyelin and DPPG; protein-to-phospholipid ratio 1:2.7, 97% Sph and 3% DPPG",,No significant decrease,no significant changes,seemed to increase the plasma unesterified cholesterol concentration,two times higher,above 10 mg/kg,No significant changes,No significant changes
